Measured values as given in ChEMBL document CHEMBL5352385, “Marine natural products and their synthetic analogs as promising antibiofilm agents for antibiotics discovery and development” (Eur J Med Chem, 2022).
Where a SMILES comes first, the peptide text is derived from it. [ ]: non-standard residue; d: D form. The star is where a group is joined. ξ: configuration not given here. ξGly(tetradecyl) = CCCCCCCCCCCCCCC(N)C(=O)O; Palmitoyl = CCCCCCCCCCCCCCCC(=O)*; X2 = CCCCCCCCC(O)CC(=O)O*

Tests used:
Format in all cases: functional
Acinetobacter baumannii [1] = test: Antibiofilm activity against Acinetobacter baumannii ATCC 19606 assessed as reduction in biofilm formation incubated for 24 hrs by crystal violet staining based analysis
Acinetobacter baumannii [2] = test: Antibiofilm activity against Acinetobacter baumannii ATCC […] assessed as reduction in biofilm formation incubated for 24 hrs by crystal violet staining based analysis
Candida albicans [3] = test: Antibiofilm activity against Candida albicans assessed as reduction in biofilm formation at 50 ug/ml measured after 48 hrs by crystal violet staining based analysis relative to control; set-up: scale not given: the % may be the effect or the level left; conditions: dose 50 µg/ml
Staphylococcus aureus [4] = test: Antibiofilm activity against Staphylococcus aureus ATCC 25923 at 8 to 16 ug/ml incubated for 24 hrs by crystal violet staining based analysis relative to control; conditions: dose 8-16 µg/ml, at 8 to 16 µg/mL
Bacillus subtilis [5] = test: Antibiofilm activity against Bacillus subtilis ATCC 6633 at 8 to 16 ug/ml incubated for 24 hrs by crystal violet staining based analysis relative to control; conditions: dose 8-16 µg/ml, at 8 to 16 µg/mL
Staphylococcus aureus [6] = test: Antibiofilm activity against Staphylococcus aureus B1 at 8 to 16 ug/ml incubated for 24 hrs by crystal violet staining based analysis relative to control; conditions: dose 8-16 µg/ml, at 8 to 16 µg/mL
Enterococcus faecalis = test: Antibiofilm activity against Enterococcus faecalis W1 at 8 to 16 ug/ml incubated for 24 hrs by crystal violet staining based analysis relative to control; conditions: dose 8-16 µg/ml, at 8 to 16 µg/mL
Pseudomonas aeruginosa [7] = test: Antibiofilm activity against Pseudomonas aeruginosa FSPA02 at 75 ug/ml by crystal violet staining based confocal microscopy analysis relative to control; conditions: dose 75 µg/ml
Staphylococcus aureus [8] = test: Antibiofilm activity against Staphylococcus aureus ATCC 6538 at 12.5 ug/ml relative to control; conditions: dose 12.5 µg/ml
Staphylococcus aureus [9] = test: Antibiofilm activity against Staphylococcus aureus ATCC 6538 at 6.25 ug/ml relative to control; conditions: dose 6.25 µg/ml
Pseudomonas aeruginosa [10] = test: Antibiofilm activity against Pseudomonas aeruginosa assessed as inhibition of biofilm formation at 90 ug/ml incubated for 24 hrs by crystal violet staining based analysis relative to control; set-up: scale not given: the % may be the effect or the level left; conditions: dose 90 µg/ml
Bacillus subtilis [11] = test: Antibiofilm activity against Bacillus subtilis MTCC 619 at 2 ug/ml incubated for 18 hrs by crystal violet staining based analysis relative to control; conditions: dose 2 µg/ml
Staphylococcus aureus [12] = test: Antibiofilm activity against Staphylococcus aureus MTCC 96 at 2 ug/ml incubated for 18 hrs by crystal violet staining based analysis relative to control; conditions: dose 2 µg/ml
Vibrio cholerae = test: Antibiofilm activity against Vibrio cholerae MTCC 3906 at 2 ug/ml incubated for 18 hrs by crystal violet staining based analysis relative to control; conditions: dose 2 µg/ml
Listeria monocytogenes = test: Antibiofilm activity against Listeria monocytogenes ATCC 19111 at 256 ug/ml relative to control; conditions: dose 256 µg/ml
[13] = tested on: Staphylococcus epidermidis; test: Antibiofilm activity against Staphylococcus epidermidis RP62A at 256 ug/ml relative to control; conditions: dose 256 µg/ml
Serratia marcescens [14] = test: Antibiofilm activity against Serratia marcescens at 30 ug/ml relative to control; conditions: dose 30 µg/ml
Vibrio anguillarum = test: Antibiofilm activity against Vibrio anguillarum at 300 ug/ml relative to control; conditions: dose 300 µg/ml
Pseudomonas aeruginosa [15] = test: Antibiofilm activity against Pseudomonas aeruginosa at 300 ug/ml relative to control; conditions: dose 300 µg/ml
Bacillus subtilis [16] = test: Antibiofilm activity against Bacillus subtilis at 300 ug/ml relative to control; conditions: dose 300 µg/ml
Bacillus sp. = test: Antibiofilm activity against Bacillus sp. 176 at 300 ug/ml relative to control; conditions: dose 300 µg/ml
Pseudomonas aeruginosa [17] = test: Antibiofilm activity against Pseudomonas aeruginosa at 100 ug/ml relative to control; conditions: dose 100 µg/ml
Staphylococcus aureus [18] = test: Antibiofilm activity against Staphylococcus aureus at 100 ug/ml relative to control; conditions: dose 100 µg/ml
Escherichia coli = test: Antibiofilm activity against Escherichia coli at 50.9 ug/ml relative to control; conditions: dose 50.9 µg/ml
Pseudomonas aeruginosa [19] = test: Antibiofilm activity against Pseudomonas aeruginosa PA01 assessed as inhibition of biofilm formation at 800 ug/ml relative to control; set-up: scale not given: the % may be the effect or the level left; conditions: dose 800 µg/ml
Staphylococcus aureus [20] = test: Antibiofilm activity against Staphylococcus aureus by crystal violet staining based analysis
Staphylococcus aureus [21] = test: Antibiofilm activity against Staphylococcus aureus incubated for 3 hrs by XTT method
Staphylococcus aureus [22] = test: Antibiofilm activity against methicillin-resistant Staphylococcus aureus 33591 assessed as reduction in biofilm formation at 50 ug/ml measured after 24 hrs by crystal violet staining based analysis relative to control; set-up: scale not given: the % may be the effect or the level left; conditions: dose 50 µg/ml
Candida albicans [23] = test: Antibiofilm activity against Candida albicans assessed as inhibition of biofilm formation at 400 ug/ml by microbroth dilution assay relative to control; set-up: scale not given: the % may be the effect or the level left; conditions: dose 400 µg/ml
Serratia marcescens [24] = test: Antibiofilm activity against Serratia marcescens FJ584421 assessed as inhibition of biofilm formation at 300 ug/ml relative to control; set-up: scale not given: the % may be the effect or the level left; conditions: dose 300 µg/ml

COc1cc(-c2ccccn2)nc(/C=N/O)c1S(C)(=O)=O gave an MBIC (Acinetobacter baumannii [1]) of 8 µg/mL and an MBIC (Acinetobacter baumannii [2]) of 32 µg/mL.

With CCCCCCC(C)/C(O)=C1\C(=O)[C@@H](C(C)O)N(C)C1=O (stereo not given in full) the Activity (Candida albicans [3]) was 80%.

Molecule C=C1CC[C@H]2[C@@](C)(CC[C@H]3C(C)(C)[C@@H](OC(C)=O)CC[C@]23C)[C@@H]1Cc1c(O)cc(C)oc1=O has an Activity (Staphylococcus aureus [4]) of 100%, an Activity (Bacillus subtilis [5]) of 100% and an Activity (Staphylococcus aureus [6]) of 100%. For the same molecule, the Activity (Enterococcus faecalis) was 100%.

CCCCCCCCC(O)CC(=O)OC(=O)C(Cc1ccccc1)NC(=O)C(CC(C)C)NC(=O)C(CC(C)C)NC(=O)C(NC(=O)C(CC(=O)O)NC(=O)C(CC(C)C)NC(=O)C(N)CC(C)C)C(C)C (stereo not given) (H-LLDVLLF-X2; configuration not given here) gave an Activity (Pseudomonas aeruginosa [7]) of 90%.

CC1=C2C(=CO[C@H](C)[C@H]2C)C(O)=C(C(=O)O)C1=O [CITRININ] gave an Activity (Staphylococcus aureus [8]) of over 50%.

COC(=O)[C@@]12Oc3ccc(-c4ccc5c(c4O)C(=O)C4=C(O)C[C@H](C)[C@H](O)[C@]4(C(=O)OC)O5)c(O)c3C(=O)C1=C(O)C[C@H](C)[C@@H]2O [SECALONIC ACID B] gave an Activity (Staphylococcus aureus [9]) of over 90%.

Work on CC(C)CC(=O)NCCc1ccccc1 yielded an Activity (Pseudomonas aeruginosa [10]) of over 40%.

CCCCCCCCCCCCCCCC(=O)NC(CO)C(=O)NC(CC(=O)O)C(=O)NC(C(=O)NC(CO)C(=O)NC(CO)C(=O)O)C(C)C (stereo not given) (Palmitoyl-SDVSS-OH; configuration not given here) was tested, and the Activity (Bacillus subtilis [11]) was 99%, the Activity (Staphylococcus aureus [12]) was 99% and the Activity (Vibrio cholerae) was 99%.

Molecule CC(C)C[C@@H]1NC(=O)[C@@H]2CCCN2C1=O has an Activity (Listeria monocytogenes) of 86.9%, an Activity [13] of 82% and an Activity (Serratia marcescens [14]) of 53.5%.

In the case of CCCCCCCCCCCCCCC1NC(=O)C(C(C)CC)NC(=O)C(CC(C)C)NC(=O)C(CC(=O)OC)NC(=O)C(CC(C)C)NC(=O)C(CC(C)C)NC(=O)C(CC(C)C)NC(=O)C(CCC(=O)OC)NC1=O (stereo not given) (cyclo([ξGly(tetradecyl)]E(OMe)LLLD(OMe)LI); configuration not given here), the Activity (Vibrio anguillarum) is reported as over 50%, the Activity (Pseudomonas aeruginosa [15]) is reported as over 50% and the Activity (Bacillus subtilis [16]) is reported as over 50%. The Activity (Bacillus sp.) was over 50%.

Molecule CCCC/C=C\CCCCCCCCCCCC=O has an Activity (Pseudomonas aeruginosa [17]) of 82.657% and an Activity (Staphylococcus aureus [18]) of 78.973%.

NC1=N[C@]23CCCN2C(=O)c2[nH]c(Br)c(Br)c2[C@@H]3N1 was tested, and the Activity (Escherichia coli) was 50%.

In the case of NCCc1ccc(O)cc1 [TYRAMINE], the Activity (Pseudomonas aeruginosa [19]) is reported as 28%.

In the case of CCCCOC(=O)[C@]1(Cc2ccccc2)OC(=O)C(O)=C1c1ccccc1, the MBIC (Staphylococcus aureus [20]) is reported as 6.1 µg/mL and the MBIC (Staphylococcus aureus [21]) is reported as 97.7 µg/mL.

With COc1cc(-c2ccccn2)nc(CO)c1SC the Activity (Staphylococcus aureus [22]) was over 90%.

O=Cc1ccc(CO)o1 [AES-103] showed an Activity (Candida albicans [23]) of 86%.

OCCc1ccc(O)cc1 [TYROSOL] showed an Activity (Serratia marcescens [24]) of 85.7%.
